Experiments:
Assay in all cases: Test C preemergence
Format in all cases: in vivo
[1] = tested on: bermudagrass (Cynodon dactylon); settings: for Plant response rating (0 to 100 where 0 is no effect and 100 is complete control), Bermudagrass: Rate 250 g/ha, visual evaluation after 12 to 14 days
Procedure, shortened: (§1)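 Visual injury scores of 0–100, with 100 meaning complete control, were given relative to controls after 12–14 days in the greenhouse. Treatments used a surfactant-containing non-phytotoxic solvent formulation, sprayed on seeded pots preemergence or on 1–4-leaf plants of 2–18 cm postemergence.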

soybean (Glycine max) = settings: for Plant response rating (0 to 100), Soybean: Rate 250 g/ha, visual evaluation after 12 to 14 days
Procedure, shortened: as §1

[2] = tested on: giant foxtail (Setaria faberii); settings: for Plant response rating (0 to 100), Foxtail, Giant: Rate 250 g/ha, visual evaluation after 12 to 14 days
Procedure, shortened: as §1

[3] = tested on: Surinam grass (Brachiaria decumbens); settings: for Plant response rating (0 to 100), Surinam grass: Rate 250 g/ha, visual evaluation after 12 to 14 days
Procedure, shortened: as §1

[4] = tested on: lambsquarters (Chenopodium album); settings: for Plant response rating (0 to 100), Lambsquarters: Rate 250 g/ha, visual evaluation after 12 to 14 days
Procedure, shortened: as §1

[5] = tested on: morningglory (Ipomoea hederacea); settings: for Plant response rating (0 to 100), Morningglory: Rate 250 g/ha, visual evaluation after 12 to 14 days
Procedure, shortened: as §1

[6] = tested on: johnsongrass (Sorghum halepense); settings: for Plant response rating (0 to 100), Johnsongrass: Rate 250 g/ha, visual evaluation after 12 to 14 days
Procedure, shortened: as §1

[7] = tested on: goosegrass (Eleusine indica); settings: for Plant response rating (0 to 100), Goosegrass: Rate 250 g/ha, visual evaluation after 12 to 14 days
Procedure, shortened: as §1

kochia (Kochia scoparia) = settings: for Plant response rating (0 to 100), Kochia: Rate 250 g/ha, visual evaluation after 12 to 14 days
Procedure, shortened: as §1

[8] = tested on: cocklebur (Xanthium strumarium); settings: for Plant response rating (0 to 100), Cocklebur: Rate 250 g/ha, visual evaluation after 12 to 14 days
Procedure, shortened: as §1

Nightshade [9] = tested on: Nightshade
[10] = tested on: crabgrass (Digitaria sanguinalis); settings: for Plant response rating (0 to 100), Crabgrass: Rate 250 g/ha, visual evaluation after 12 to 14 days
Procedure, shortened: as §1

[11] = tested on: common ragweed (Ambrosia elatior); settings: for Plant response rating (0 to 100), Ragweed, Common: Rate 250 g/ha, visual evaluation after 12 to 14 days
Procedure, shortened: as §1

[12] = tested on: velvetleaf (Abutilon theophrasti); settings: for Plant response rating (0 to 100), Velvetleaf: Rate 250 g/ha, visual evaluation after 12 to 14 days
Procedure, shortened: as §1

[13] = tested on: woolly cupgrass (Eriochloa villosa); settings: for Plant response rating (0 to 100), Cupgrass, Woolly: Rate 250 g/ha, visual evaluation after 12 to 14 days
Procedure, shortened: as §1

Sunflower = settings: Rate 62 g/ha; scale 0 to 100, 0 no effect, 100 complete control
[14] = tested on: pigweed (Amaranthus retroflexus); settings: for Plant response rating (0 to 100), Pigweed: Rate 250 g/ha, visual evaluation after 12 to 14 days
Procedure, shortened: as §1

corn (Zea mays) = settings: for Plant response rating (0 to 100), Corn: Rate 250 g/ha, visual evaluation after 12 to 14 days
Procedure, shortened: as §1

[15] = tested on: yellow nutsedge (Cyperus esculentus); settings: for Plant response rating (0 to 100), Nutsedge: Rate 250 g/ha, visual evaluation after 12 to 14 days
Procedure, shortened: as §1

Nightshade [16] = settings: Rate 250 g/ha, visual evaluation after 12 to 14 days
[17] = Rate 62 g/ha, scale 0 to 100, 0 no effect, 100 complete control
[18] = preemergence, Rate 31 g/ha, scale 0 to 100
[19] = preemergence, Rate 125 g/ha, scale 0 to 100, 0 no effect, 100 complete control
[20] = Rate 125 g/ha, scale 0 to 100, 0 no effect, 100 complete control

CC(C)(C)c1ccn(C2SCN(c3cccc(OC(F)F)c3)C2=O)n1 (centres unmarked) [Compound 36]
Plant response rating, Bermudagrass [1, 17]: 100
Plant response rating, Bermudagrass [1, 18]: 100
Plant response rating (0 to 100 where 0 is no effect and 100 is complete control), Bermudagrass ([1]; preemergence): 100
Plant response rating, Bermudagrass [1, 19]: 100
Plant response rating, Soybean (soybean (Glycine max); [17]): 30
Plant response rating, Soybean (soybean (Glycine max); [18]): 30
Plant response rating (0 to 100), Soybean (soybean (Glycine max); preemergence): 50
Plant response rating, Soybean (soybean (Glycine max); [19]): 50
Plant response rating, Foxtail, Giant [2, 17]: 0
Plant response rating, Foxtail, Giant [2, 18]: 90
Plant response rating (0 to 100), Foxtail, Giant ([2]; preemergence): 100
Plant response rating, Foxtail, Giant [2, 19]: 100
Plant response rating, Surinam grass [3, 17]: 70
Plant response rating, Surinam grass [3, 18]: 20
Plant response rating (0 to 100), Surinam grass ([3]; preemergence): 100
Plant response rating, Surinam grass [3, 19]: 70
Plant response rating, Lambsquarters [4, 17]: 100
Plant response rating, Lambsquarters [4, 18]: 100
Plant response rating (0 to 100), Lambsquarters ([4]; preemergence): 100
Plant response rating, Lambsquarters [4, 19]: 100
Plant response rating, Morningglory [5, 17]: 0
Plant response rating, Morningglory [5, 18]: 0
Plant response rating (0 to 100), Morningglory ([5]; preemergence): 50
Plant response rating, Morningglory [5, 19]: 0
Plant response rating, Johnsongrass [6, 17]: 90
Plant response rating, Johnsongrass [6, 18]: 50
Plant response rating (0 to 100), Johnsongrass ([6]; preemergence): 100
Plant response rating, Johnsongrass [6, 19]: 90
Plant response rating, Goosegrass [7, 17]: 100
Plant response rating, Goosegrass [7, 18]: 90
Plant response rating (0 to 100), Goosegrass ([7]; preemergence): 100
Plant response rating, Goosegrass [7, 19]: 100
Plant response rating, Kochia (kochia (Kochia scoparia); [17]): 100
Plant response rating, Kochia (kochia (Kochia scoparia); [18]): 70
Plant response rating (0 to 100), Kochia (kochia (Kochia scoparia); preemergence): 100
Plant response rating, Kochia (kochia (Kochia scoparia); [19]): 100
Plant response rating, Cocklebur [8, 17]: 30
Plant response rating, Cocklebur [8, 18]: 0
Plant response rating (0 to 100), Cocklebur ([8]; preemergence): 30
Plant response rating, Nightshade (Nightshade [9]; Rate 31 g/ha, scale 0 to 100): 0
Plant response rating, Nightshade (Nightshade [9]; [17]): 30
Plant response rating, Nightshade (Nightshade [9]; [20]): 50
Plant response rating, Crabgrass [10, 17]: 100
Plant response rating, Crabgrass [10, 18]: 90
Plant response rating (0 to 100), Crabgrass ([10]; preemergence): 100
Plant response rating, Crabgrass [10, 19]: 100
Plant response rating, Ragweed, Common [11, 17]: 0
Plant response rating, Ragweed, Common [11, 18]: 0
Plant response rating (0 to 100), Ragweed, Common ([11]; preemergence): 50
Plant response rating, Ragweed, Common [11, 19]: 30
Plant response rating, Velvetleaf [12, 17]: 0
Plant response rating, Velvetleaf [12, 18]: 0
Plant response rating (0 to 100), Velvetleaf ([12]; preemergence): 40
Plant response rating, Velvetleaf [12, 19]: 0
Plant response rating, Cupgrass, Woolly [13, 17]: 60
Plant response rating, Cupgrass, Woolly [13, 18]: 30
Plant response rating (0 to 100), Cupgrass, Woolly ([13]; preemergence): 100
Plant response rating, Cupgrass, Woolly [13, 19]: 100
Plant response rating, Sunflower (Sunflower): 0
Plant response rating, Pigweed [14, 17]: 0
Plant response rating, Pigweed [14, 18]: 0
Plant response rating (0 to 100), Pigweed ([14]; preemergence): 100
Plant response rating, Pigweed [14, 19]: 0
Plant response rating, Corn (corn (Zea mays); [17]): 20
Plant response rating, Corn (corn (Zea mays); [18]): 0
Plant response rating (0 to 100), Corn (corn (Zea mays); preemergence): 80
Plant response rating, Corn (corn (Zea mays); [19]): 40
Plant response rating, Nutsedge [15, 17]: 0
Plant response rating, Nutsedge [15, 18]: 0
Plant response rating (0 to 100), Nutsedge ([15]; preemergence): 30
Plant response rating, Nutsedge [15, 19]: 30
Plant response rating (0 to 100), Nightshade (Nightshade [16]): 90

O=C1C(n2ccc(C3CCC3)n2)SCN1c1cccc(C(F)(F)F)c1 (centres unmarked) [Compound 37]
Plant response rating, Bermudagrass [1, 17]: 70
Plant response rating, Bermudagrass [1, 18]: 60
Plant response rating (0 to 100 where 0 is no effect and 100 is complete control), Bermudagrass ([1]; preemergence): 100
Plant response rating, Bermudagrass [1, 19]: 80
Plant response rating, Soybean (soybean (Glycine max); [17]): 0
Plant response rating, Soybean (soybean (Glycine max); [18]): 0
Plant response rating (0 to 100), Soybean (soybean (Glycine max); preemergence): 50
Plant response rating, Foxtail, Giant [2, 17]: 60
Plant response rating, Foxtail, Giant [2, 18]: 50
Plant response rating (0 to 100), Foxtail, Giant ([2]; preemergence): 100
Plant response rating, Foxtail, Giant [2, 19]: 70
Plant response rating, Surinam grass [3, 17]: 0
Plant response rating, Surinam grass [3, 18]: 0
Plant response rating (0 to 100), Surinam grass ([3]; preemergence): 90
Plant response rating, Surinam grass [3, 19]: 0
Plant response rating, Lambsquarters [4, 17]: 100
Plant response rating, Lambsquarters [4, 18]: 100
Plant response rating (0 to 100), Lambsquarters ([4]; preemergence): 100
Plant response rating, Lambsquarters [4, 19]: 100
Plant response rating, Morningglory [5, 17]: 0
Plant response rating, Morningglory [5, 18]: 0
Plant response rating (0 to 100), Morningglory ([5]; preemergence): 30
Plant response rating, Morningglory [5, 19]: 0
Plant response rating, Johnsongrass [6, 17]: 30
Plant response rating, Johnsongrass [6, 18]: 20
Plant response rating (0 to 100), Johnsongrass ([6]; preemergence): 90
Plant response rating, Johnsongrass [6, 19]: 30
Plant response rating, Goosegrass [7, 17]: 90
Plant response rating, Goosegrass [7, 18]: 60
Plant response rating (0 to 100), Goosegrass ([7]; preemergence): 100
Plant response rating, Goosegrass [7, 19]: 90
Plant response rating, Kochia (kochia (Kochia scoparia); [17]): 50
Plant response rating, Kochia (kochia (Kochia scoparia); [18]): 40
Plant response rating (0 to 100), Kochia (kochia (Kochia scoparia); preemergence): 100
Plant response rating, Kochia (kochia (Kochia scoparia); [19]): 100
Plant response rating, Cocklebur [8, 18]: 0
Plant response rating (0 to 100), Cocklebur ([8]; preemergence): 0
Plant response rating, Cocklebur [8, 19]: 0
Plant response rating, Nightshade (Nightshade [9]; Rate 31 g/ha, scale 0 to 100): 0
Plant response rating, Nightshade (Nightshade [9]; [17]): 0
Plant response rating, Nightshade (Nightshade [9]; [20]): 0
Plant response rating, Crabgrass [10, 17]: 90
Plant response rating, Crabgrass [10, 18]: 80
Plant response rating (0 to 100), Crabgrass ([10]; preemergence): 100
Plant response rating, Crabgrass [10, 19]: 90
Plant response rating, Ragweed, Common [11, 17]: 0
Plant response rating, Ragweed, Common [11, 18]: 0
Plant response rating (0 to 100), Ragweed, Common ([11]; preemergence): 60
Plant response rating, Ragweed, Common [11, 19]: 20
Plant response rating, Velvetleaf [12, 17]: 0
Plant response rating, Velvetleaf [12, 18]: 0
Plant response rating (0 to 100), Velvetleaf ([12]; preemergence): 20
Plant response rating, Velvetleaf [12, 19]: 20
Plant response rating, Cupgrass, Woolly [13, 17]: 0
Plant response rating, Cupgrass, Woolly [13, 18]: 0
Plant response rating (0 to 100), Cupgrass, Woolly ([13]; preemergence): 100
Plant response rating, Cupgrass, Woolly [13, 19]: 0
Plant response rating, Sunflower (Sunflower): 0
Plant response rating, Pigweed [14, 17]: 0
Plant response rating, Pigweed [14, 18]: 0
Plant response rating (0 to 100), Pigweed ([14]; preemergence): 100
Plant response rating, Pigweed [14, 19]: 0
Plant response rating, Corn (corn (Zea mays); [17]): 0
Plant response rating, Corn (corn (Zea mays); [18]): 0
Plant response rating (0 to 100), Corn (corn (Zea mays); preemergence): 40
Plant response rating, Corn (corn (Zea mays); [19]): 40
Plant response rating, Nutsedge [15, 17]: 20
Plant response rating, Nutsedge [15, 18]: 0
Plant response rating (0 to 100), Nutsedge ([15]; preemergence): 30
Plant response rating, Nutsedge [15, 19]: 20
Plant response rating (0 to 100), Nightshade (Nightshade [16]): 0

From patent publication US7138361B2, “Herbicidal heterocycles” (E. I. du Pont de Nemours and Company, priority 2000, dated 2006)
